Data as given in patent US20170029388A1, “Treatment of Neurodegenerative Diseases with Asparagine Endopeptidase (AEP) Inhibitors and Compositions Related Thereto” (INTERCONTINENTAL GREAT BRANDS LLC, priority 2014, published 2017).
“Also recorded” adds a separate entry of the source.

Columns and labels:
Cathepsin = assay: OGD in primary neurons, Cathepsin activity; assay type: cell-based; details: 0.1 μM or 1.0 μM compound
Description: (§1) A. AEP activity, measured in primary neuronal cultures with 5 μM Cbz-Ala-Ala-Asn-AMC (x-axis denotes neurons were treated with 0.1 μM or 1.0 μM specified compound). B. Caspase activity, measured in primary neuronal cultures with 5 μM Ac-Asp-Glu-Val-Asp-AMC. C. Cathepsin activity, measured in primary neuronal cultures with 5 μM D-Val-Leu-Lys-AMC. D. Inhibition of APP cleavage. Lysates of primary cortical neurons pre-incubated with compounds for 30 min, underwent OGD for 4 hrs, were reperfused for 18 hrs (normoxia neurons remained at normoxic conditions). E. APP can be cleaved in a dose-dependent manner. Lysates of primary cortical neurons pre-incubated with compounds for 30 min, underwent OGD for 4 hrs, were reperfused for 18 hrs (normoxia neurons remained at normoxic conditions).
(§2) Depriving cells of oxygen and glucose is a cellular model that is employed to trigger acidosis in cultured cells. The efficacy of the compounds in a cellular model of oxygen-glucose deprivation (OGD) was determined in an effort to mimic the effects of stroke in primary cultured neurons. As a result of depriving neurons of oxygen and glucose-containing medium, AEP activity was doubled (FIG. 7A, ‘DMSO-Norm’ compared to ‘DMSO-OGD’), while Caspase-3 and Cathepsin activities remained relatively unchanged. […]

AEP = assay: Oxygen-glucose deprivation (OGD) in primary neurons, AEP activity; assay type: cell-based; details: 0.1 μM or 1.0 μM compound
Description: as §1, §2

5XFAD mice [1] = assay: Morris water maze in 5XFAD mice; assay type: in vivo, mouse
Source text: (§3) A. Thioflavin-S staining of amyloid plaques in the hippocampus (HP), motor cortex (MC), and frontal cortex (FC) of 5XFAD mouse brain sections. Scale bar, 50 μm. B. Quantitative analysis of amyloid plaques. […] F. The percentage of time spent in the target quadrant in the probe trail.
Female wild-type and 5XFAD mice maintained on standard drinking water or compound #11 were trained in a round, water-filled tub (52 inch diameter) in an environment rich with extra maze cues. An invisible escape platform was located in a fixed spatial location 1 cm below the water surface independent of a subjects start position on a particular trial. In this manner, subjects needed to utilize extra maze cues to determine the platform's location. At the beginning of each trial, the mouse was placed in the water maze with their paws touching the wall from 1 of 4 different starting positions (N, S, E, W). Each subject was given 4 trials/day for 5 consecutive days with a 15-min inter-trial interval. […] Upon reaching the invisible escape platform, subjects were left on it for an additional 5 s to allow for survey of the spatial cues in the environment to guide future navigation to the platform. After each trial, subjects were dried and kept in a dry plastic holding cage filled with paper towels to allow the subjects to dry off The temperature of the water was monitored every hour so that mice were tested in water that was between 22 and 25° C. Following the 5 days of task acquisition, a probe trial was presented during which time the platform was removed and the percentage of time spent in the quadrant which previously contained the escape platform during task acquisition was measured over 60 s. All trials were analysed for latency, swim path length, and swim speed by means of MazeScan (Clever Sys, Inc.).

Caspase-3 = assay: OGD in primary neurons, Caspase activity; assay type: cell-based; details: 0.1 μM or 1.0 μM compound
Description: as §1, §2

5XFAD mice [2] = assay: Amyloid plaque staining and Aβ ELISA in 5XFAD mice; assay type: in vivo, mouse; details: oral once daily for 3 months
Description: as §3
Free-floating 30-μm-thick serial sections were treated with 0.3% hydrogen peroxide for 10 min, and then incubated with anti-AEP-cleaved APP (1:500) or anti-Aβ (1:500) overnight. The signal was developed using Histostain-SP kit (#956543, invitrogen) according to the manufacturer's instructions.
After rinsed in distilled water, the sections were transferred to blocking solution containing 1% sodium hydroxide and 0.9% hydrogen peroxide for 20 min. The sections were incubated for 5 s in 0.25% acidic acid, then washed in distilled water and stained for 5 min with 0.0125% Thioflavin-S in 50% ethanol. The sections were washed with 50% ethanol and placed in distilled water. Then the sections were covered with glass cover using mounting solution.
The mice brains were homogenized in 8X mass of 5 M guanidine HCl/50 mM Tris HCl (pH 8.0), and incubated at room temperature for 3 h. Then the samples were diluted with cold reaction buffer (phosphate buffered saline with 5% BSA and 0.03% Tween 20, supplemented with protease inhibitor cocktail), and centrifuged at 16 000 g for 20 min at 4° C. The supernatant were analysed by human Aβ42 ELISA kit according to the manufacturer's instructions (KHB3441, Invitrogen). The Aβ42 concentrations were determined by comparison with the standard curve.

Nc1ccc(N2CCOCC2)c2nonc12 [Compound 11]
Cathepsin activity in OGD-treated neurons (Cathepsin): not observed | AEP activity in OGD-treated neurons (AEP): marked dose-dependent decrease | Morris water maze, distance to platform (5XFAD mice [1]; 5 acquisition days, vs vehicle): decreased distance to platform | swim speed (5XFAD mice [1]; mouse, in vivo): not altered; also recorded: not affected | Morris water maze probe test, time in target quadrant (5XFAD mice [1]; vs vehicle): spend more time in the target quadrant; also recorded: spent more time in the target quadrant | Caspase-3 activity in OGD-treated neurons (Caspase-3): not observed | amyloid plaque deposition (Thioflavin S) (5XFAD mice [2]; hippocampus, motor cortex, frontal cortex): decreased; also recorded: attenuated | concentration of Aβ 1-40 in brain lysates (5XFAD mice [2]): decreased | concentration of Aβ 1-42 in brain lysates (5XFAD mice [2]): decreased
